Data from paper PMC10069031 (European Journal of Medical Research, 2023).

Key:
[1] = tested on: AKT; test: Inhibition of AKT activation in CSF1-stimulated RAW264.7 cells (western blot); type: cell-based, mouse; conditions: Mus musculus, mean ± SD (replicates), read-out: Mean kinase IC50 values: P(S473)AKT [WB]
Experimental: RAW264.7 cells (10^6) were seeded into cell culture dishes 6 cm in diameter and incubated in 4 mL RPMI/10% fetal bovine serum (Biochrom) for 24 h at 37 °C in a humidified 5% CO2 atmosphere. Cells were washed once with phosphate-buffered saline (PBS) and starved in 3 mL RPMI/0.1% bovine serum albumin for another 24 h. Cells were then treated for 1 h at 37 °C with drugs at the indicated final concentrations, with 0.5% DMSO as vehicle control, or left untreated, and finally stimulated for 2 min at 37 °C with 100 ng/mL recombinant mouse CSF1 (R&D Systems) by adding 1 mL prewarmed starving medium containing 400 ng/mL CSF1. Dishes were placed on ice and cells were immediately washed with ice-cold PBS and lysed with 50 µL lysis buffer (50 mM HEPES pH 7.5, 150 mM NaCl, 1.5 mM MgCl2, 10% glycerol, 1% Triton X-100, 0.5% desoxycholate, 0.2% sodium dodecyl sulfate, 1 mM ethylene glycol-bis[β-aminoethyl ether]-N,N,N′,N′-tetraacetic acid, 100 mM NaF, 10 mM Na4P2O7, 1 mM Na3VO4, 1% Phosphatase Inhibitor Cocktail 3 [Sigma-Aldrich], 1 mM phenylmethyl sulfonyl fluoride, Complete Protease Inhibitor Cocktail [Roche CustomBiotech; 1 tablet/10 mL], and 50 U/mL Benzonase [Sigma-Aldrich]). Lysed cells were scraped into Eppendorf tubes, incubated on ice for 20 min, and centrifuged at 4 °C for 10 min at 13,000 rpm; supernatants (lysates) were transferred into new tubes and stored at −80 °C.
Protein concentrations were determined using Pierce bicinchoninic acid assay (Thermo Fisher Scientific) and 40 µg/lane of total lysate was separated by SDS-PAGE on 4–12% Criterion XT Bis–Tris Gels (Bio-Rad) and subsequently transferred to polyvinylidene difluoride membranes using the Trans Blot Turbo Blotting System (Bio-Rad). For antigen detection, membranes were blocked with PBS Odyssey blocking reagent (LI-COR Biosciences) for 1 h at room temperature (RT). Primary antibodies were incubated overnight at 4 °C and the fluorescent secondary antibodies were incubated for 1 h at RT. After each antibody incubation, blots were washed with PBS with 0.05% Tween 20 (Carl Roth) for 15–30 min at RT. Fluorescent signals were quantitatively captured using the Odyssey DLx Infrared Imaging System (LI-COR Biosciences) and the half-maximal inhibitory concentration (IC50) values were calculated using GraphPad software (version 7 or newer).

[2] = tested on: CCL2; test: CCL2 in MC38 tumors; type: in vivo, mouse; conditions: REG 5 and 10 mg/kg/day
Experimental: For tumors, snap-frozen tissue was subjected to cryogenic grinding using a Mixer Mill MM 400 and stainless steel beads (7 mm in diameter; Retsch) and subsequently lysed in Tris Lysis Buffer (Meso Scale Diagnostics). The lysates were centrifuged at 25,000 g at 4 °C for 10 min, protein concentrations were determined using the 660 nm protein assay kit (Pierce), and 2–20 μg of lysate was used for CCL2 analysis. CCL2 concentrations were related to the amounts of tumor tissue taken for the lysis procedure.
(§1) Five analysis of variance (ANOVA) models were applied to analyze the log10-transformed values of the tumor weight in the CT26 study, the CCL2 levels in the tumor in the CT26 and MC38 studies, and the CCL2 levels in the PB in the CT26 and MC38 studies. The standard assumption of equal variances between treatment groups was applied for all endpoints, except for CCL2 levels in the tumor in the MC38 study, for which unequal variances between treatment groups were allowed. A negative binomial regression model was applied to evaluate percentages of CD115^hi and F4/80^hi cells within the CD45^+ cell population in PB and tumor tissue, respectively.
In vivo passaging was initiated by transplanting fragments of cryo-preserved MC38 tumors of early passages (<p5) subcutaneously into 6–8-week-old female C57BL/6 mice. […]

[3] = tested on: CD115^hi cells in blood; test: CD115^hi cells in blood, MC38 study; type: in vivo, mouse; conditions: C57BL/6 mice with subcutaneous MC38 CRC tumors
Experimental: For tumors, single-cell suspensions were prepared from the fresh tumor pieces using a mouse Tumor Dissociation Kit (Miltenyi Biotec). The final cell pellets were resuspended in 1 mL FC buffer (PBS with 2 mM EDTA, 0.5% bovine serum albumin). Then, 100 µL of the tumor single-cell suspensions and the EDTA blood samples were stained by addition of the antibody cocktail and incubated for 10 min at 4 °C according to the manufacturer’s instructions. After antibody incubation, blood samples were incubated with 2–3 mL lysis buffer (0.17 M NH4Cl, 10 mM KHCO3, 0.1 mM EDTA) for 10–20 min at RT to lyse and remove red blood cells. Subsequently, samples were centrifuged at 300 g for 5 min at 4 °C and cells were washed with 2–3 mL FC buffer. Tumor samples were washed immediately after antibody incubation with 2–3 mL FC buffer without the lysis procedure and centrifuged at 300 g for 5 min at 4 °C. […] Next, 50 µL of blood and 70 µL of tumor cell suspensions were analyzed by FC using MACSQuant Analyzer 10 and MACSQuant Analyzer 16 (Miltenyi Biotec). FC data were analyzed with the FlowLogic software (Inivai Technologies distributed through Miltenyi Biotec; version 7.2.1) and gated as shown in Fig. S1 (see Additional file 2), whereby up to seven subpopulations were identified in the CD45^+ fraction using antibodies against F4/80 and CD115. […]

[4] = tested on: CCL2; test: CCL2 in blood, MC38 study; type: in vivo, mouse; conditions: C57BL/6 mice with subcutaneous MC38 CRC tumors
Experimental: CCL2 was detected in plasma samples and tumor tissue using the U-Plex mouse MCP-1 ELISA Kit (Meso Scale Diagnostics) according to the manufacturer’s instructions. Measurements were performed at least in duplicate. For plasma, 12.5 µL was analyzed per animal.
as §1
In vivo passaging was initiated by transplanting fragments of cryo-preserved MC38 tumors of early passages (<p5) subcutaneously into 6–8-week-old female C57BL/6 mice. Tumors were grown to a size of about 1000 mm^3, excised, cut into fragments edging approximately 2 mm, and used for further passaging in vivo for a maximum of 10 passages. Necrotic areas were removed. […]

[5] = tested on: TAM-associated genes; test: qRT-PCR of TAM-associated genes in CT26 tumors; type: in vivo, mouse; conditions: REG(V1) vs V1, qRT-PCR

## CNC(=O)c1cc(Oc2ccc(NC(=O)Nc3ccc(Cl)c(C(F)(F)F)c3)c(F)c2)ccn1 [REG, Regorafenib]
[1]
  IC50: 141 ± 59 nM
[2]
  CCL2 concentrations in MC38 tumors: dose dependently increased
[3]
  number of CD115^hi cells in the blood: reduced
[4]
  CCL2 levels in blood: without affecting
[5]
  transcript frequency of Adgre1 (F4/80): significantly reduced
  transcript frequency of Arg1: unchanged
  transcript frequency of CSF1R: significantly reduced
  transcript frequency of Hilpda: unchanged
  transcript frequency of Maf: reduced
  transcript frequency of MafB: unchanged
  transcript frequency of Mgl2: reduced
  transcript frequency of Mrc1 (CD206): significantly reduced
  transcript frequency of Nos2: unchanged
  transcript frequency of VEGFA: unchanged
